Test results from patent publication US4739106A, “3-amino-3-carbamoyloxyalkylacrylic acid intermediates to dihydropyridines” (Banyu Pharmaceutical Co., Ltd., priority 1982, dated 1988).
≈ marks a conversion by molar mass, not a printed value.

How the values were obtained:
[1] = system: cerebral blood flow and peripheral blood flow; experiment: Separate pharmacological test: cerebral and peripheral blood flow, i.v.; assay type: in vivo; conditions: 1 to 10 μg/kg intravenously
[2] = system: isolated hearts of rabbits (coronary vessels); experiment: Coronary vasodilation, Langendorff method, isolated hearts of rabbits; conditions: Oryctolagus cuniculus, dosage of a sample required to increase the coronary outflow by 50%, isolated rabbit hearts, read-out: Coronary vasodilation ICD50
Procedure: (a) Coronary vasodilation
According to Langendorff method (O. Langendorff; Pflugers arch. ges. phisiol., 61, 291-332 (1895)), the coronary vasodilation effects were tested using isolated hearts of rabbits. The strength of coronary vasodilation was evaluated by ICD50 (g/ml) i.e. the dosage of a sample required to increase the coronary outflow by 50%.

[3] = Acute toxicity, i.v., DM strain male mice, up-and-down method; conditions: mouse, in vivo, iv
Beagle dogs = experiment: Coronary effects on anesthetized beagle dogs (CF, FAF, BP, HR), i.v.; assay type: in vivo, dog (beagle); conditions: for CF % increase: coronary blood flow; for CF % increase / FAF % increase / HR % increase: vs saline control; for FAF % increase: femoral artery blood flow; for HR % increase: heart rate; for BP % decrease: systemic blood pressure, vs control
Procedure: (c) Coronary effects on dogs
Beagle dogs (13 to 16 kg, .male.) were subjected to thoracotomy under anesthesia with sodium pentobarbital, and a probe was attached to the heart left coronary anterior descending artery of each animal, whereupon the coronary blood flow (CF) was measured by an electromagnetic flowmeter. On the other hand, a probe was attached to the exposed right femoral artery, and the femoral artery blood flow (FAF) was measured by an electromagnetic flowmeter. A canule was inserted to the left femoral artery, and the systemic blood pressure (BP) was bloody measured by a transducer.
The heart rate (HR) was measured by an electrocardiogram.
The sample solution was intravenously injected to the right femoral vein.
The coronary blood flow (CF), the femoral artery blood flow (FAF) and the heart rate (HR) were represented by a % increase upon the injection of each sample as compared with the respective control value upon the injection of a saline.
The systemic blood pressure (BP) was represented by a % decrease as compared with the control.

Compound: CCOC(=O)C1=C(C)NC(COC(N)=O)=C(C(=O)OCC)C1c1cccc([N+](=O)[O-])c1 (stereo not drawn) [(1), 2-Carbamoyloxymethyl-6-methyl-4-(m-nitrophenyl)-3,5-diethoxycarbonyl-1,4-dihydropyridine]
- Increase of cerebral blood flow [1]: 40 to 50%
- Increase of peripheral blood flow [1]: 40 to 50%

Compound: CCOC(=O)C1=C(C)NC(COC(=O)NC)=C(C(=O)OCC)C1c1cccc([N+](=O)[O-])c1 (stereo not drawn) [(2)]
- EC50 [2]: 0.32 µg/mL (≈ 0.715 µM)
- LD50 [3]: 71 mg/kg

Compound: CNC(=O)OCC1=C(C(=O)OC)C(c2cccc([N+](=O)[O-])c2)C(C(=O)OC)=C(C)N1 (stereo not drawn) [(4)]
- EC50 [2]: 0.36 µg/mL (≈ 0.858 µM)
- LD50 [3]: 84 mg/kg

Compound: CCOC(=O)C1=C(C)NC(COC(N)=O)=C(C(=O)OCC)C1c1ccccc1[N+](=O)[O-] (stereo not drawn) [(5), 2-Carbamoyloxymethyl-6-methyl-4-(o-nitrophenyl)-3,5-diethoxycarbonyl-1,4-dihydropyridine]
- CF % increase (Beagle dogs; 1 μg/kg i.v.): 13%
- CF % increase (Beagle dogs; 3 μg/kg i.v.): 38%
- CF % increase (Beagle dogs; 10 μg/kg i.v.): 86%
- FAF % increase (Beagle dogs; 1 μg/kg i.v.): 8%
- FAF % increase (Beagle dogs; 3 μg/kg i.v.): 35%
- FAF % increase (Beagle dogs; 10 μg/kg i.v.): 82%
- HR % increase (Beagle dogs; 1 μg/kg i.v.): 0%
- HR % increase (Beagle dogs; 3 μg/kg i.v.): 0%
- HR % increase (Beagle dogs; 10 μg/kg i.v.): -10%
- BP % decrease (Beagle dogs; 1 μg/kg i.v.): 0%
- BP % decrease (Beagle dogs; 3 μg/kg i.v.): 2%
- BP % decrease (Beagle dogs; 10 μg/kg i.v.): 22%

Compound: CCCOCCOC(=O)C1=C(C)NC(COC(N)=O)=C(C(=O)OCCOCCC)C1c1cccc([N+](=O)[O-])c1 (stereo not drawn) [(12), 2-Carbamoyloxymethyl-6-methyl-4-(m-nitrophenyl)-3,5-bis[(β-propoxyethoxy)carbonyl]-1,4-dihydropyridine]
- Increase of cerebral blood flow [1]: 40 to 50%
- Increase of peripheral blood flow [1]: 40 to 50%

Compound: CCCOCCOC(=O)C1=C(C)NC(COC(=O)NC)=C(C(=O)OCCOCCC)C1c1cccc([N+](=O)[O-])c1 (stereo not drawn) [(13), 2-N--Methylcarbamoyloxymethyl,-6-methyl-4-(m-nitrophenyl)-3,5-bis[(β-propoxyethoxy)carbonyl]-1,4-dihydropyridine]
- Increase of cerebral blood flow [1]: 40 to 50%
- Increase of peripheral blood flow [1]: 40 to 50%

Compound: COC(=O)C1=C(COC(N)=O)NC(C)=C(C(=O)OCCN(C)Cc2ccccc2)C1c1cccc([N+](=O)[O-])c1 (stereo not drawn) [(15), 2-Carbamoyloxymethyl-6-methyl-4-(m-nitrophenyl)-3-methoxycarbonyl-5-(β-N--methylbenzylaminoethoxy)carbonyl-1,4-dihydropyridine]
- LD50 [3]: 200 mg/kg

Compound: COC(=O)C1=C(COC(N)=O)NC(C)=C(C(=O)OCCN2CCOCC2)C1c1cccc([N+](=O)[O-])c1 (stereo not drawn) [(18), 2-Carbamoyloxymethyl-6-methyl-4-(m-nitrophenyl)-3-methoxycarbonyl-5-(β-morpholinoethoxy)carbonyl-1,4-dihydropyridine]
- LD50 [3]: 200 mg/kg
